In patent US20140088069A1, “NOVEL ANTIBACTERIAL COMBINATION THERAPY” (priority 2011, published 2014):
Read-outs that look alike come from different tables or passages of the source.

Experiments:
[1] = tested on: CA-MRSA USA300; assay: Checkerboard (FIC) analysis against CA-MRSA USA300; assay type: cell-based, Staphylococcus aureus; settings: for MIC: Staphylococcus aureus
Experimental: (§1) Here a matrix of drug concentrations were tested in combinations at the concentrations shown (μg/mL). Greyscale indicates growth—darker is more growth, lighter is less growth. FIC index is a measure of synergy and is calculated as follows: FIC index=FIC (cefuroxime)+FIC (drug compound).
(§2) The combination of ticlopidine and cefuroxime was further tested as above against a variety of S. aureus strains as shown in Table 1 below.
FIC index=FIC (β-lactam)+FTC (ticlopidine). […]

[2] = tested on: S. aureus (Newman strain); assay: Checkerboard (FIC) analysis against S. aureus Newman; assay type: cell-based, Staphylococcus aureus; settings: Newman
[3] = tested on: MRSA; assay: Analogues in combination with cefuroxime against MRSA (FIC index); assay type: cell-based, Staphylococcus aureus; settings: compound in combination with cefuroxime; MRSA (Table 5)
Experimental: A series of analogues were synthesized (as shown in Table 5) in which the thienopyridine ring was removed.
These were tested in combination with cefuroxime against MRSA and results are shown below (Table 6).

[4] = tested on: HA-MRSA EMRSA15; assay: Checkerboard (FIC) analysis, HA-MRSA EMRSA15; assay type: cell-based, Staphylococcus aureus
[5] = tested on: HA-MRSA; assay: Checkerboard (FIC) analysis, HA-MRSA (Table 1 r10); assay type: cell-based, Staphylococcus aureus; settings: HA-MRSA (Table 1 r10)
[6] = tested on: CA-MRSA USA400/MW2; assay: Checkerboard (FIC) analysis, CA-MRSA USA400/MW2; assay type: cell-based, Staphylococcus aureus
[7] = tested on: HA-MRSA USA500; assay: Checkerboard (FIC) analysis, HA-MRSA USA500; assay type: cell-based, Staphylococcus aureus
[8] = tested on: HA-MRSA USA600; assay: Checkerboard (FIC) analysis, HA-MRSA USA600; assay type: cell-based, Staphylococcus aureus
[9] = tested on: HA-MRSA USA100/800/NY; assay: Checkerboard (FIC) analysis, HA-MRSA USA100/800/NY; assay type: cell-based, Staphylococcus aureus
[10] = tested on: HA-MRSA USA200/EMRSA16; assay: Checkerboard (FIC) analysis, HA-MRSA USA200/EMRSA16; assay type: cell-based, Staphylococcus aureus
[11] = tested on: HA-MRSA; assay: Checkerboard (FIC) analysis, HA-MRSA (Table 1 r13); assay type: cell-based, Staphylococcus aureus; settings: HA-MRSA (Table 1 r13)
Experimental: (§3) Here a matrix of drug concentrations were tested in combinations at the concentrations shown (μg/mL). […] FIC index is a measure of synergy and is calculated as follows: FIC index=FIC (cefuroxime)+FIC (drug compound).

[12] = tested on: HA-MRSA; assay: Checkerboard (FIC) analysis, HA-MRSA (Table 1 r16); assay type: cell-based, Staphylococcus aureus; settings: HA-MRSA (Table 1 r16)
[13] = tested on: RN4220; assay: Checkerboard (FIC) analysis, RN4220; assay type: cell-based, Staphylococcus aureus
Experimental: as §3

[14] = tested on: SA178R1; assay: Checkerboard (FIC) analysis, SA178R1; assay type: cell-based, Staphylococcus aureus
[15] = tested on: S. aureus strains
Experimental: as §1, §2

[16] = Staphylococcus aureus, ticlopidine alone, read-out: MIC ticlopidine

With Clc1ccccc1CN1CCc2sccc2C1 [Compound 1, 5-(2-Chloro-benzyl)-4,5,6,7-tetrahydro-thieno[3,2-c]pyridine] the FIC ticlopidine ([1]; CA-MRSA USA300 (Table 1), in the presence of cefuroxime) was 0.032, the “FIC index” value ([1]; CA-MRSA USA300 (Table 1), ticlopidine + cefuroxime) was “≦0.063” and the MIC ([1]; CA-MRSA USA300 (Table 1), ticlopidine alone, read-out: MIC ticlopidine) was greater than 256 µg/mL. For the same compound, the MIC ([1]; thienopyridine alone, CA-MRSA USA300 (Table 4), read-out: MIC thienopyridine) was greater than 128 µg/mL, the “drug-drug interaction with cefuroxime (checkerboard secondary screen)” value ([1]; in combination with cefuroxime) was “synergistic interactions” and the FIC thienopyridine ([1]; in the presence of cefuroxime, CA-MRSA USA300 (Table 4)) was 0.13. The “FIC index” value ([1]; thienopyridine in combination with cefuroxime, CA-MRSA USA300 (Table 4)) was “≦0.16”, the FIC index ([1]; ticlopidine in combination with cefuroxime, CA-MRSA USA 300, FIG. 2) was no more than 0.12 and the FIC ticlopidine ([2]; in the presence of cefuroxime) was 0.125. The “FIC index” value ([2]; ticlopidine + cefuroxime) was “≦0.250”, the MIC [2, 16] was greater than 256 µg/mL and the “FIC index” value [3] was “≦0.125”. The MIC [4, 16] was greater than 256 µg/mL, the FIC ticlopidine ([4]; in the presence of cefuroxime) was 0.063 and the “FIC index” value ([4]; ticlopidine + cefuroxime) was “≦0.125”. For the same compound, the FIC ticlopidine ([5]; in the presence of cefuroxime) was 0.032, the “FIC index” value ([5]; ticlopidine + cefuroxime) was “≦0.282” and the MIC [5, 16] was greater than 256 µg/mL. For the same compound, the MIC [6, 16] was greater than 256 µg/mL, the FIC ticlopidine ([6]; in the presence of cefuroxime) was 0.063 and the “FIC index” value ([6]; ticlopidine + cefuroxime) was “≦0.125”. For the same compound, the MIC [7, 16] was greater than 256 µg/mL, the FIC ticlopidine ([7]; in the presence of cefuroxime) was 1 and the “FIC index” value ([7]; ticlopidine + cefuroxime) was “≦2”. For the same compound, the MIC [8, 16] was greater than 256 µg/mL, the FIC ticlopidine ([8]; in the presence of cefuroxime) was 0.032 and the “FIC index” value ([8]; ticlopidine + cefuroxime) was “≦0.040”. The MIC [9, 16] was greater than 256 µg/mL, the FIC ticlopidine ([9]; in the presence of cefuroxime) was 0.125 and the “FIC index” value ([9]; ticlopidine + cefuroxime) was “≦0.250”. For the same compound, the MIC [10, 16] was greater than 256 µg/mL, the FIC ticlopidine ([10]; in the presence of cefuroxime) was 0.063 and the “FIC index” value ([10]; ticlopidine + cefuroxime) was “≦0.095”. The FIC ticlopidine ([11]; in the presence of cefuroxime) was 0.016, the “FIC index” value ([11]; ticlopidine + cefuroxime) was “≦0.266” and the MIC [11, 16] was greater than 256 µg/mL. The FIC ticlopidine ([12]; in the presence of cefuroxime) was 0.063, the “FIC index” value ([12]; ticlopidine + cefuroxime) was “≦0.188” and the MIC [12, 16] was greater than 256 µg/mL. The MIC ([13]; Staphylococcus aureus, ticlopidine alone) was greater than 128 µg/mL, the FIC ticlopidine ([13]; in the presence of cefuroxime) was 1 and the “FIC index” value ([13]; ticlopidine + cefuroxime) was “≦2”. The MIC [14, 16] was greater than 128 µg/mL, the FIC ticlopidine ([14]; in the presence of cefuroxime) was 1 and the “FIC index” value ([14]; ticlopidine + cefuroxime) was “≦2”. The “methicillin-resistant strains (Canadian MRSA collection) in which potent synergy was retained” value ([15]; ticlopidine + cefuroxime, including USA300) was 7 of 10, the antibacterial activity alone ([15]; ticlopidine alone against the S. aureus strains of Table 1) was “no antibacterial activity alone” and the “potentiation of the activity of the β-lactams” value ([15]; ticlopidine in combination with a β-lactam, even in β-lactam-resistant S. aureus) was “over 32 fold”.
